Results on one compound are retold here after patent publication US20240182423A1, “4-AMINOQUINOLINES FOR TREATMENT OF MULTIDRUG RESISTANT MALARIA” (United States Government as represented by the Department …, priority 2022, published 2024).

Series [1] relates to drug sensitive D6 clone of P. falciparum. Put plainly: SYBR Green I fluorescence-based antiplasmodial assay, D6. The series is classed as cell-based, Plasmodium falciparum. Particulars: Plasmodium falciparum, D6, 72 h, P. falciparum D6, 72 hours. As for the experimental part: (§1) Laboratory strains of P. falciparum were cultured in human erythrocytes by standard methods (Trager, W.; Jensen, J. B. Human malaria parasites in continuous culture. Science 1976, 193 (4254), 673-675. DOI: 10.1126/science.781840 from NLM Medline). The parasites were grown in culture medium with fresh human erythrocytes maintained at 2% hematocrit at 37° C. in low-oxygen conditions (5% 02, 5% CO2, 90% N2). The culture medium used was RPMI-1640 with 25 mg/L gentamicin sulfate, 45 mg/L Albumax II, 10 mM glucose, and 25 mM HEPES buffer (Smilkstein et al., Simple and inexpensive fluorescence-based technique for high-throughput antimalarial drug screening. Antimicrob Agents Chemother 2004, 48 (5), 1803-1806. DOI: 10.1128/aac.48.5.1803-1806.2004). Cultures were maintained at less than 10% parasitemia by transfer of infected cells to fresh erythrocytes and culture medium every 3 or 4 days. […]
(§2) In vitro antimalarial activity was measured using the SYBR Green I fluorescence-based assay. […] Experiments were set up in quadruplicate in 96-well plates with a 100 μL total volume per well with 2% hematocrit, 0.2% parasitemia, and drug dilutions between 0.25 and 250 nM in complete culture medium described above. The plates were incubated at 37° C. in low-oxygen conditions described previously for 72 hours, at which point 100 μL of fluorescent dye-detergent mixture (0.2 μL SYBR Green I: 1 mL lysing buffer) was added and the plates incubated in the dark at room temperature for one hour. After incubation with the fluorescent dye, a 96-well plate reader with excitation wavelength set at 497 nm and emission at 520 nm, was used to measure fluorescence of each well.
(§3) Each of the ADC derivatives was tested for antiplasmodial activity against the drug sensitive D6 clone of P. falciparum as well as one or more of the following multidrug resistant strains: Dd2 or 7G8. The method used for antiplasmodial testing is known as the SyBr Green assay and it was described by us in 2004 (Smilkstein et al., Antimicrob Agents Chemother 2004, 48 (5), 1803-1806).

The test system of series [2] is multi-drug resistant (Dd2) P. falciparum. Kind of series: SYBR Green I fluorescence-based antiplasmodial assay, Dd2. The series is classed as cell-based, Plasmodium falciparum. Particulars: Plasmodium falciparum, DD2, 72 h, P. falciparum Dd2, 72 hours. The method, then: as §1, §2, §3
A short description of series [3]: HepG2 cytotoxicity assay (resazurin). The series is classed as cell-based. Particulars: human; HepG2, 24 h drug then 24 h drug-free; read-out: CC50 v HepG2. The method, then:
Final compounds were assessed for mammalian cytotoxicity using an immortalized human liver carcinoma cell line (HepG2) using previously described methods.^1 In short, final compounds were prepared in DMSO as 10 mM stock solutions. […] To 96-well flat-bottomed tissue culture plates, HepG2 cells were added at 2×10 4 density with an additional 160 μL of complete culture media per well and were incubated overnight at 37° C. to allow for adherence. Compound stocks aliquots were applied as 40 μL solutions in complete media to each well in a serial dilution series that ranged from […] as duplicates. A 10 mM DMSO stock of mefloquine was used as a positive control. […] 20 μL of resazurin (Alamar Blue) in PBS buffer was added to each well to a final concentration of 10 μM, and the plates were incubated for 3 h. Fluorescence was measured at 560 nm excitation and 590 nm emission bands using a Spectramax iD3 plate reader. Fluorescence output values were normalized to the untreated control wells and plotted against the logarithm of drug concentration.
(In general: Alamar Blue is a resazurin reagent that responds to reducing activity.)

Series [4] can be described thus: Pharmacokinetic study in mice. The series is classed as in vivo.
[5] abbreviates: mouse, plasma, PO 5 mg/kg in PEG400, male CD1 mice.
Where [6] appears, read: mouse, plasma, PO 5 mg/kg in PEG400, male CD1 mice, non-compartmental.

In general, IC50 refers to the point on the concentration scale where inhibition reaches its midpoint. A lower IC50 goes with higher potency. The term CC50 denotes the concentration giving 50% cytotoxicity. The term AUC(0-inf) denotes the area under the concentration-time curve extrapolated to infinity. Lower therefore signals less exposure. What is called AUC(0-t) is exposure summed from dosing to a finite time, without extrapolation to infinity. A high value points to high exposure. One may read the MRT inf as the average time that molecules of a dose stay in the body. As usually defined, the Cmax is the maximum level reached in the sampled fluid or tissue. As a reminder, the Tmax is the time at which the peak concentration occurs. One may read the half-life as the time needed for the level to fall by half in the phase considered.

In series [1], `CC(C)CN1CCC(c2ccc(Nc3ccnc4cc(Cl)ccc34)cc2)CC1` [ADC-028, 7-chloro-N-(4-(1-isobutylpiperidin-4-yl)phenyl)quinolin-4-amine] yielded an IC50 of 7.9 nM. Moreover, the IC50 in series [2] was 17.4 nM. Moreover, in series [3], the CC50 at 24 h was more than 200000 nM. The MRTIast in series [4] (PO 5 mg/kg in PEG400, male CD1 mice) came to 19.3 h. In addition, in series [4] (setting [5]), the AUC(0-inf) was determined as 3160 ng·h/mL, the area under the curve AUC(0-t) came to 2360 ng·h/mL and the MRT inf turned out to be 35.6 h. Besides, in series [4] (setting [6]), the peak concentration (Cmax) amounted to 67.7 ng/mL and the Tmax worked out at 1 h. Moreover, in series [4] (mouse, plasma, PO 5 mg/kg, male CD1 mice, Rsq_adjusted 0.829 (<0.9: might not be accurately estimated)), the half-life was 25.1 h.
